Data published in PMC6037046, “Structural insights into Plasmodium falciparum nicotinamide mononucleotide adenylyltransferase: oligomeric assembly” (Memórias do Instituto Oswaldo Cruz, 2018).

How the values were obtained:
[1] = molecular target: 6 x His-Plasmodium falciparum nicotinamide mononucleotide adenylyltransferase (PfNMNAT) recombinant protein (Plasmodium falciparum (FCB2 strain gDNA; ORF identified in strain 3D7)) (UniProt Q8IE38); test: native gel or EMSA; native PAGE of IMAC eluate (four gels of 6, 8, 10, 12 %T) with Ferguson plot (-Log Kr vs Log MW) against standard proteins
6 x His-PfNMNAT = molecular target: T1, 6 x His-PfNMNAT (Plasmodium falciparum, UniProt Q8IE38); test: RP-HPLC of NAD formed (direct assay); also ADH-coupled assay at […] nm; format: biochemical; conditions: 1.25 mM NMN, 1.25 mM ATP, 10 mM MgCl2, 25 mM HEPES/KOH pH 7.4, 37 C
T1 construct: gene PF3D7_1327600; full ORF in pET100/D-TOPO, N-terminal 6xHis tag kept, E. coli Codon Plus (DE3) RIL, ~28 kDa
T1 sequence (Q8IE38 1-204): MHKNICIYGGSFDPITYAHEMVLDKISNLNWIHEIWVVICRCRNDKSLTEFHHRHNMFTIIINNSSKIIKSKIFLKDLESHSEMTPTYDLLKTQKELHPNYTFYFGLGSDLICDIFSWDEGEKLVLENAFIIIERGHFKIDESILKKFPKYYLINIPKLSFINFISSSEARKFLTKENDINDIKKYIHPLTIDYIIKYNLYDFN

stoichiometry N [1] | Compound | RP-HPLC of NAD formed (direct assay); also ADH-coupled assay at 340 nm (6 x His-PfNMNAT)
2 | 6 x His-Plasmodium falciparum nicotinamide mononucleotide adenylyltransferase (PfNMNAT) recombinant protein (from UniProt Q8IE38 1-204) (enzyme) | 
 | Nc1ncnc2c1ncn2[C@@H]1O[C@H](COP(=O)(O)OP(=O)(O)OP(=O)(O)O)[C@@H](O)[C@H]1O [ATP] | direct enzymatic assays that measured NAD synthesis from NMN and ATP
 | NC(=O)c1ccc[n+]([C@@H]2O[C@H](COP(=O)(O)O)[C@@H](O)[C@H]2O)c1 [NMN, nicotinamide mononucleotide] | direct enzymatic assays that measured NAD synthesis from NMN and ATP
